Reference: the NIST ThermoML archive (doi:10.1016/j.fluid.2006.03.018)
Numbers after ± are expanded uncertainties.

Assays:
[1] = for mass density: 298.15 K, 101.33 kPa
[2] = refractive index (Na D-line) (dimensionless); settings: 298.15 K; 101.33 kPa; Liquid

Row | Structure (SMILES) | mass density ([1]; Liquid) [kg/m3] | refractive index [2] | also measured
1 | CC(C)O [propan-2-ol] | 781.3 ± 2 | 1.3752 ± 0.001 | vapor or sublimation pressure ([1]; 353.95 K, Liquid): 95.23 ± 4.8 kPa; vapor or sublimation pressure ([1]; 354.05 K, Liquid): 95.76 ± 4.8 kPa
2 | CC(C)CO [2-methyl-1-propanol] | 797.8 ± 2 | 1.3939 ± 0.001 | vapor or sublimation pressure ([1]; 379.55 K, Liquid): 95.23 ± 4.8 kPa; vapor or sublimation pressure ([1]; 379.75 K, Liquid): 95.76 ± 4.8 kPa
3 | Cc1ccccc1O [2-methylphenol] | 1046 ± 2.9 | 1.5468 ± 0.001 | vapor or sublimation pressure ([1]; 461.85 K, Liquid): 95.76 ± 4.8 kPa
4 | CCCO [propan-1-ol] | 799.6 ± 2.2 | 1.3837 ± 0.0008 | vapor or sublimation pressure ([1]; 368.85 K, Liquid): 95.23 ± 4.8 kPa; vapor or sublimation pressure ([1]; 368.95 K, Liquid): 95.76 ± 4.8 kPa
5 | CO [methanol] | 786.4 ± 2 | 1.3265 ± 0.001 | vapor or sublimation pressure ([1]; 336.15 K, Liquid): 95.23 ± 4.8 kPa; vapor or sublimation pressure ([1]; 336.35 K, Liquid): 95.76 ± 4.8 kPa
6 | CC(C)(C)O [2-methylpropan-2-ol] | 781.2 ± 2 | 1.3852 ± 0.001 | vapor or sublimation pressure ([1]; 354.05 K, Liquid): 95.23 ± 4.8 kPa; vapor or sublimation pressure ([1]; 354.15 K, Liquid): 95.76 ± 4.8 kPa
7 | CCO [ethanol] | 784.9 ± 2 | 1.3594 ± 0.001 | vapor or sublimation pressure ([1]; 349.95 K, Liquid): 95.23 ± 4.8 kPa; vapor or sublimation pressure ([1]; 350.05 K, Liquid): 95.76 ± 4.8 kPa
8 | Cc1ccc(O)cc1 [4-methylphenol] | – | 1.539 ± 0.001 | mass density ([1]; Crystal): 1155 ± 4 kg/m3; vapor or sublimation pressure ([1]; 472.85 K, Liquid): 95.23 ± 4.8 kPa
9 | CCC(C)O (stereo not drawn) [butan-2-ol] | 802.4 ± 2.1 | 1.3953 ± 0.001 | vapor or sublimation pressure ([1]; 371.15 K, Liquid): 95.23 ± 4.8 kPa; vapor or sublimation pressure ([1]; 371.35 K, Liquid): 95.76 ± 4.8 kPa
10 | CCCCO [butan-1-ol] | 805.8 ± 2.1 | 1.3974 ± 0.001 | vapor or sublimation pressure ([1]; 389.45 K, Liquid): 95.76 ± 4.8 kPa; vapor or sublimation pressure ([1]; 391.55 K, Liquid): 95.23 ± 4.8 kPa
